Assay results as given in patent US9108921B2, “Therapeutic compounds and compositions” (AGIOS PHARMACEUTICALS, INC, priority 2014, dated 2015).

Experiments:
PKR R510Q = PKR R510Q (Homo sapiens, UniProt P30613, R510Q); assay: PKR Mutant Assay, AC50 against PKR R510Q; format: biochemical; details: mutant PKR R510Q enzyme
Summary of the method: (§1)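 LDH-coupled read-out: NADH (180 uM) consumption followed as absorbance change at 340 nm, room temperature, after ADP addition. Mutant PKR enzyme 80-400 ng/well, PEP 0.1-0.5 mM, ADP 0.22-1.65 mM; compound preincubated 60 min with all components except ADP.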

PKR R532W = PKR R532W (Homo sapiens, UniProt P30613, R532W); assay: PKR Mutant Assay, AC50 against PKR R532W; format: biochemical; details: mutant PKR R532W enzyme
Chain of PKR R532W (P30613 whole entry R532W): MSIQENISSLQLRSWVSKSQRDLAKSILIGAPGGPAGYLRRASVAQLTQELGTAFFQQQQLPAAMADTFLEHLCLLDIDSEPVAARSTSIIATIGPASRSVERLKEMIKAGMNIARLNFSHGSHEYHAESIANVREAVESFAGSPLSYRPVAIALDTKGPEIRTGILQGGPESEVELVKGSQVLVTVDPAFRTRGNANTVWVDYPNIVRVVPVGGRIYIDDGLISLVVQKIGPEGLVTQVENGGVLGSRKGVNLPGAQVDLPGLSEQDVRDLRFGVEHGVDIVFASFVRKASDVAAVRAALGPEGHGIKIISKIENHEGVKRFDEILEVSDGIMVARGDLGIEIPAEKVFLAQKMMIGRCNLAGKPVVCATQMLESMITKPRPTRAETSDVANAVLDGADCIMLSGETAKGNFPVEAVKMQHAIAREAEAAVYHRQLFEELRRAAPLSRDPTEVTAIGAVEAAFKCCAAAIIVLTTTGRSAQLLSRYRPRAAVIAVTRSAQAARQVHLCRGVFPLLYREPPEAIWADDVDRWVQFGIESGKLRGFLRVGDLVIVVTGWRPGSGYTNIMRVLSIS
Summary of the method: as §1

PKR WT [1] = target: T1, PKR WT (Homo sapiens, UniProt P30613); assay: PKR WT enzymatic AC50 assay; format: biochemical; details: wild type PKR
T1 sequence (P30613 whole entry): as the sequence (P30613 whole entry R532W) above, with W532R counted along it
Summary of the method: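 PK-LDH coupled assay, RT. Enzyme + cpd + PEP/NADH/LDH, 60 min pre-incubation, no ADP. ADP 0.22-1.65 mM to initiate; A340 kinetic read. Cpd 11 pts, 3-fold, 100 μM top.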

PKR WT [2] = target: T1, PKR WT; assay: PKR WT cell based AC50 assay; details: wild type PKR

Chain of PKR R510Q (P30613 whole entry R510Q): as the sequence (P30613 whole entry R532W) above, with R510Q, W532R counted along it

Structure (SMILES)	AC50 (PKR R510Q) [nM]	AC50 (PKR R532W) [nM]	AC50 (PKR WT [1]) [nM]	AC50 (PKR WT [2]) [nM]
O=C(c1ccc(NS(=O)(=O)c2cccc3cccnc23)cc1)N1CCC(O)(c2cccc(OC(F)(F)F)c2)CC1 [Compound 245, N-(4-(4-hydroxy-4-(3-(trifluoromethoxy)phenyl)piperidine-1-carbonyl)phenyl)quinoline-8-sulfonamide]	1010 to 10000	101 to 1000	101 to 1000	1010 to 10000
O=C(c1ccc(NS(=O)(=O)c2cccc3cccnc23)cc1)N1CCC(O)(c2ccccc2)CC1 [Compound 156, N-(4-(4-hydroxy-4-phenylpiperidine-1-carbonyl)phenyl)quinoline-8-sulfonamide]	101 to 1000	< 100	< 100	< 100
O=C(c1ccc(NS(=O)(=O)c2cc(F)cc3cccnc23)cc1)N1CCC(O)(c2ccccc2)CC1 [Compound 196, 6-fluoro-N-(4-(4-hydroxy-4-phenylpiperidine-1-carbonyl)phenyl)quinoline-8-sulfonamide]	101 to 1000	< 100	< 100	101 to 1000
O=C(c1ccc(NS(=O)(=O)c2cccc3cccnc23)cc1)N1CCC(O)(c2ccccc2O)CC1 [Compound 228, N-[4-[4-hydroxy-4-(2-hydroxyphenyl)piperidine-1-carbonyl]phenyl]quinoline-8-sulfonamide]	1010 to 10000	< 100	101 to 1000	< 100
O=C(c1ccc(NS(=O)(=O)c2cccc3cccnc23)cc1)N1CCC(O)(c2ccccc2OC(F)(F)F)CC1 [Compound 150, N-(4-(4-hydroxy-4-(2-(trifluoromethoxy)phenyl)piperidine-1-carbonyl)phenyl)quinoline-8-sulfonamide]	< 100	< 100	< 100	101 to 1000
O=C(c1ccc(NS(=O)(=O)c2cccc3cccnc23)cc1)N1CCC(O)(c2ccc(F)cc2)CC1 [Compound 194, N-(4-(4-(4-fluorophenyl)-4-hydroxypiperidine-1-carbonyl)phenyl)quinoline-8-sulfonamide]	101 to 1000	< 100	< 100	< 100
O=C(c1ccc(NS(=O)(=O)c2cccc3cc(F)cnc23)cc1)N1CCC(O)(Cc2ccccc2)CC1 [Compound 128, N-(4-(4-benzyl-4-hydroxypiperidine-1-carbonyl)phenyl)-3-fluoroquinoline-8-sulfonamide]	< 100	< 100	< 100	< 100
O=C(c1ccc(NS(=O)(=O)c2cc(F)cc3scnc23)cc1)N1CCC(O)(c2ccccc2Cl)CC1 [Compound 401, N-(4-(4-(2-chlorophenyl)-4-hydroxypiperidine-1-carbonyl)phenyl)-6-fluorobenzo[d]thiazole-4-sulfonamide]	101 to 1000	< 100	< 100	101 to 1000
Cc1cc(NS(=O)(=O)c2cccc3cccnc23)ccc1C(=O)N1CCC(O)(c2ccccc2Cl)CC1 [Compound 141, N-(4-(4-(2-chlorophenyl)-4-hydroxypiperidine-1-carbonyl)-3-methylphenyl)quinoline-8-sulfonamide]	101 to 1000	< 100	< 100	< 100
O=C(c1ccc(NS(=O)(=O)c2cc(F)cc3cccnc23)cc1)N1CCC(O)(c2ccccc2Cl)CC1 [Compound 223, N-(4-(4-(2-chlorophenyl)-4-hydroxypiperidine-1-carbonyl)phenyl)-6-fluoroquinoline-8-sulfonamide]	101 to 1000	< 100	< 100	101 to 1000
COc1cc(NS(=O)(=O)c2cccc3cccnc23)ccc1C(=O)N1CCC(O)(c2ccccc2Cl)CC1 [Compound 170, N-(4-(4-(2-chlorophenyl)-4-hydroxypiperidine-1-carbonyl)-3-methoxyphenyl)quinoline-8-sulfonamide]	101 to 1000	< 100	< 100	101 to 1000
COc1ncccc1C1(O)CCN(C(=O)c2ccc(NS(=O)(=O)c3cccc4cccnc34)cc2)CC1 [Compound 211, N-(4-(4-hydroxy-4-(2-methoxypyridin-3-yl)piperidine-1-carbonyl)phenyl)quinoline-8-sulfonamide]	101 to 1000	< 100	< 100	101 to 1000
O=C(c1ccc(NS(=O)(=O)c2cccc3cccnc23)cc1)N1CCC(O)(c2cccc(C(F)(F)F)c2)CC1 [Compound 199, N-(4-(4-hydroxy-4-(3-(trifluoromethyl)phenyl)piperidine-1-carbonyl)phenyl)quinoline-8-sulfonamide]	101 to 1000	< 100	< 100	< 100
O=C(c1ccc(NS(=O)(=O)c2cccc3cc(F)cnc23)cc1)N1CCC(O)(c2ccccc2)CC1 [Compound 218, 3-fluoro-N-(4-(4-hydroxy-4-phenylpiperidine-1-carbonyl)phenyl)quinoline-8-sulfonamide]	101 to 1000	< 100	< 100	< 100
O=C(c1ccc(NS(=O)(=O)c2ccc(F)c3cccnc23)cc1)N1CCC(O)(c2ccccc2Cl)CC1 [Compound 179, N-(4-(4-(2-chlorophenyl)-4-hydroxypiperidine-1-carbonyl)phenyl)-5-fluoroquinoline-8-sulfonamide]	101 to 1000	< 100	< 100	< 100
CC(C)CC1(O)CCN(C(=O)c2ccc(NS(=O)(=O)c3cc(F)cc4sc(N)nc34)cc2)CC1 [Compound 145, 2-amino-6-fluoro-N-(4-(4-hydroxy-4-isobutylpiperidine-1-carbonyl)phenyl)benzo[d]thiazole-4-sulfonamide]	< 100	< 100	< 100	< 100

Next, values leading:

AC50 (PKR R510Q) [nM]	AC50 (PKR R532W) [nM]	AC50 (PKR WT [1]) [nM]	AC50 (PKR WT [2]) [nM]	Structure (SMILES)
101 to 1000	< 100	< 100	101 to 1000	O=C(c1ccc(NS(=O)(=O)c2cccc3cccnc23)cc1)N1CCC(O)(Cc2cccc(C(F)(F)F)c2)CC1 [Compound 152, N-(4-(4-hydroxy-4-(3-(trifluoromethyl)benzyl)piperidine-1-carbonyl)phenyl)quinoline-8-sulfonamide]
101 to 1000	101 to 1000	101 to 1000	101 to 1000	CC(C)CC1(O)CCN(C(=O)c2ccc(NS(=O)(=O)c3cccc4ocnc34)cc2)CC1 [Compound 379, N-(4-(4-hydroxy-4-isobutylpiperidine-1-carbonyl)phenyl)benzo[d]oxazole-4-sulfonamide]
101 to 1000	< 100	< 100	< 100	O=C(c1ccc(NS(=O)(=O)c2cccc3cccnc23)cc1)N1CCC(O)(Cc2cccnc2F)CC1 [Compound 168, N-(4-(4-((2-fluoropyridin-3-yl)methyl)-4-hydroxypiperidine-1-carbonyl)phenyl)quinoline-8-sulfonamide]
1010 to 10000	101 to 1000	101 to 1000	101 to 1000	CC(C)(O)CC1(O)CCN(C(=O)c2ccc(NS(=O)(=O)c3cccc4cccnc34)cc2)CC1 [Compound 241, N-(4-(4-hydroxy-4-(2-hydroxy-2-methylpropyl)piperidine-1-carbonyl)phenyl)quinoline-8-sulfonamide]
101 to 1000	< 100	< 100	< 100	O=C(c1ccc(NS(=O)(=O)c2cccc3scnc23)cc1)N1CCC(O)(CC2CCC2)CC1 [Compound 212, N-(4-(4-(cyclobutylmethyl)-4-hydroxypiperidine-1-carbonyl)phenyl)benzo[d]thiazole-4-sulfonamide]
< 100	< 100	< 100	< 100	C=C(CC1(O)CCN(C(=O)c2ccc(NS(=O)(=O)c3cccc4scnc34)cc2)CC1)C(F)(F)F [Compound 390, N-(4-(4-hydroxy-4-(2-(trifluoromethyl)allyl)piperidine-1-carbonyl)phenyl)benzo[d]thiazole-4-sulfonamide]
< 100	< 100	< 100	< 100	O=C(c1ccc(NS(=O)(=O)c2cccc3nccnc23)cc1)N1CCC(O)(CCCC(F)(F)F)CC1 [Compound 397, N-(4-(4-hydroxy-4-(4,4,4-trifluorobutyl)piperidine-1-carbonyl)phenyl)quinoxaline-5-sulfonamide]
< 100	< 100	< 100	101 to 1000	O=C(c1ccc(NS(=O)(=O)c2cccc3scnc23)cc1)N1CCC(O)(/C=C/CC(F)(F)F)CC1 [Compound 404, (E)-N-(4-(4-hydroxy-4-(4,4,4-trifluorobut-1-enyl)piperidine-1-carbonyl)phenyl)benzo[d]thiazole-4-sulfonamide]
101 to 1000	101 to 1000	< 100	101 to 1000	COCCC1(O)CCN(C(=O)c2ccc(NS(=O)(=O)c3cccc4cccnc34)cc2)CC1 [Compound 225, N-[4-[4-hydroxy-4-(2-methoxyethyl)piperidine-1-carbonyl]phenyl]quinoline-8-sulfonamide]
101 to 1000	< 100	< 100	< 100	O=C(c1ccc(NS(=O)(=O)c2cccc3nccnc23)cc1)N1CCC(O)(CCCC(F)F)CC1 [Compound 400, N-(4-(4-(4,4-difluorobutyl)-4-hydroxypiperidine-1-carbonyl)phenyl)quinoxaline-5-sulfonamide]
